“Also recorded” adds a separate entry of the source.
What was measured:
[1] = test system: mouse epiblast stem cell-derived OPCs; test: In vitro OPC differentiation assay (percentage of MBP+ oligodendrocytes, high-content imaging); format: cell-based; settings: for formation of MBP+ oligodendrocytes from OPCs / formation of MBP+ oligodendrocytes in combination with ketoconazole: 72 h; for formation of MBP+ oligodendrocytes from OPCs: differentiation-permissive conditions; for formation of MBP+ oligodendrocytes in combination with ketoconazole: co-treatment with ketoconazole 2.5 μM
Experimental: To rigorously assess effects of small molecule and genetic treatments on OPCs, all treatments were assayed in two batches of epiblast stem cell-derived OPCs, and key results were confirmed using mouse primary OPCs. OPCs were generated from two separate EpiSC lines, EpiSC5 (giving rise to OPC-5 OPCs) and 12901 (giving rise to OPC-1 OPCs). EpiSC-derived OPCs were obtained using in vitro differentiation protocols and culture conditions described previously. To ensure uniformity throughout all in vitro screening experiments, EpiSC-derived OPCs were sorted to purity by fluorescence activated cell sorting at passage five with conjugated CD 140a-APC (eBioscience, 17-1401; 1:80) and NG2-AF488 (Millipore, AB[…]; 1:100) antibodies. Sorted batches of OPCs were expanded and frozen down in aliquots. OPCs were thawed into growth conditions for one passage before use in further assays. Cultures were regularly tested and shown to be mycoplasma free. EpiSC-derived OPCs were grown and expanded in poly-ornithine (PO) and laminin-coated flasks with growth medium (DMEM/F12 supplemented with N2-MAX (R&D Systems), B-27 (ThermoFisher), GlutaMax (Gibco), FGF2 ([…], R&D systems, 233-FB-025) and PDGF-AA ([…], R&D systems, 233-AA-050) before harvesting for plating. The cells were seeded onto poly-D-[…]-well CellCarrier plates (PerkinElmer) coated with laminin (Sigma, L2020; 15 μg/ml) using multi-channel pipet. For the experiment, 800,000 cells/mL stock in differentiation medium (DMEM/F12 supplemented with N2-MAX and B-27) was prepared and stored on ice for 2 h. Then, 40,000 cells were seeded per well in differentiation medium and allowed to attach for 30 min before addition of drug. For dose-response testing of all molecules except sterols, a 1000× compound stock in dimethyl sulphoxide (DMSO) was added to assay plates with 0.1 μL solid pin multi-blot replicators (V & P Scientific; VP 409), resulting in a final primary screening concentration of 1×. Sterols were added to cells as an ethanol solution (0.2% final ethanol concentration). Positive control wells (ketoconazole, 2.5 μM) and DMSO vehicle controls were included in each assay plate. Cells were incubated under standard conditions (37° C., 5% CO2) for 3 days and fixed with 4% paraformaldehyde (PFA) in phosphate buffered saline (PBS) for 20 min. Fixed plates were washed with PBS (200 μL per well) twice, permeabilized with 0.1% Triton X-100 and blocked with 10% donkey serum (v/v) in PBS for 40 min. Then, cells were labelled with MBP antibodies (Abcam, ab7349; 1:200) for 16 h at 4° C. followed by detection with Alexa Fluor conjugated secondary antibodies (1:500) for 45 min. Nuclei were visualized by DAPI staining (Sigma; 1 μg/ml). During washing steps, PBS was added using a multi-channel pipet and aspiration was performed using Biotek EL406 washer dispenser (Biotek) equipped with a 96-well aspiration manifold. Plates were imaged on the Operetta High Content Imaging and Analysis system (PerkinElmer) and a set of 6 fields captured from each well resulting in an average of 1200 cells being scored per well. Analysis (PerkinElmer Harmony and Columbus software) began by identifying intact nuclei stained by DAPI; that is, those traced nuclei that were larger than 300 μm^2 in surface area. Each traced nucleus region was then expanded by 50% and cross-referenced with the […] (MBP) stain to identify oligodendrocyte nuclei, and from this the percentage of oligodendrocytes was calculated. In some experiments, the total process length of MBP^+ oligodendrocytes was calculated as previously described.

[2] = test system: EpiSC-derived OPCs on microfibers; test: Oligodendrocyte formation on electrospun microfibers; format: cell-based, mouse; settings: 14 days
Experimental: A 12-well plate containing Mimetex aligned scaffold (microfiber plate, AMSBIO, AMS.TECL-006-1X, Electrospun poly-L-lactide Scaffold, […] cell crown inserts) was prepared as previously described. Briefly, inserts were sterilized with 70% ethanol and washed with PBS before being coated with polyornithine and laminin. After laminin coating, 100,000 cells/mL of EpiSC-derived OPCs were plated in differentiation medium. After 24 h the media was replaced with fresh media containing small molecule treatments. Every 48 h the media was replaced with fresh compound containing media for a total of 14 days. Plates were fixed with 4% PFA, permeabilized with 0.1% Triton X-100, and blocked with 10% donkey serum (v/v) in PBS for 60 min. Plates were stained for MBP (Abcam, ab7349; 1:100) and DAPI staining (Sigma; 5 μg/ml). After staining, the inserts were moved into new 12-well plate and covered with 2 mL of PBS before imaging in Operetta high content Imaging and analysis system. Plates were imaged on the Operetta High Content Imaging and Analysis system (PerkinElmer) and a set of 8 fields captured from each well resulting in an average of 45,000 cells being scored per well. Analysis (PerkinElmer Harmony and Columbus software) identified intact nuclei stained by DAPI and calculated the MBP signal intensity per cell per well. Microfiber insert tracking images were taken using a Leica DMi8 with a 20× Dry/NA 0.40 objective. Microfiber plate inserts were mounted using Flouromount-G (SouthernBiotech) and allowed to partially harden before coverslips were added and the insert ring was removed. Confocal images were obtained on a Leica SP8 confocal scanning microscope, with 40× oil/NA 1.30 objective. Confocal stacks of 0.336 μm z-steps were taken at 1024×1024. Each fluorophore was excited sequentially and all contrast and brightness changes were applied consistently between images.

estrogen receptor = settings: cited from earlier work
[3] = test system: sterol levels in OPCs (cholesterol biosynthesis pathway); test: GC/MS-based sterol profiling in OPCs; format: cell-based, mouse; settings: 24 h treatment
LPC-lesioned spinal cord [4] = settings: previously established by the inventors; cited from earlier work
rat CYP51 = target: T1, rat CYP51 (Rattus norvegicus, UniProt Q64654); test: biochemical
T1 sequence (Q64654 1-503): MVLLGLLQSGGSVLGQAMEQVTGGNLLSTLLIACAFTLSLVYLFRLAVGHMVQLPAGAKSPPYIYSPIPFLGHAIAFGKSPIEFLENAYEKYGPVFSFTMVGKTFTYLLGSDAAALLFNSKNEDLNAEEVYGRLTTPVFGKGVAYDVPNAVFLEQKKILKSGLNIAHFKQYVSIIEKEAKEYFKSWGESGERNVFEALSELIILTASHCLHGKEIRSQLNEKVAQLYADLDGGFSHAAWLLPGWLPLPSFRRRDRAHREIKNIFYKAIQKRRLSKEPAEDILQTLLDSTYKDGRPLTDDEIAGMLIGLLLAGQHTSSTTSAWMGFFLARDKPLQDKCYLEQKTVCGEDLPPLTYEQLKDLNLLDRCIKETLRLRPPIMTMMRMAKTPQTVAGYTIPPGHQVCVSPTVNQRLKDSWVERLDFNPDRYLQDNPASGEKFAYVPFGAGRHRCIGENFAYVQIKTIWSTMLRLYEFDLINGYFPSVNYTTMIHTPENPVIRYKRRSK

[5] = test system: human induced pluripotent stem cell-derived cortical spheroids; test: Sterol profiling in human iPSC-derived cortical spheroids; format: cell-based
[6] = test system: human ERα, GR, LXRβ, NFkB, NRF2, PGR, PPARδ, PPARγ, RARα, RARγ, RXRα, RXRβ, TRα, TRβ, VDR, ERRα, RORα and RORγ; test: Luciferase reporter assays for 18 nuclear hormone receptors; format: cell-based; settings: 2,2-Dimethylzymosterol 5 μM, Ketoconazole 2.5 μM, TASIN-1 250 nM
Experimental: FIGS. 6(A-D) illustrate images and graphs showing the effect of 8,9-unsaturated sterols on nuclear hormone receptors and SREBP2 activity: a) Luciferase reporter assays were used to assess if 2,2-Dimethylzymosterol (5 μM), Ketoconazole (2.5 μM), and TASIN-1 (250 nM) modulate human ERα, GR, LXRβ, NFkB, NRF2, PGR, PPARδ, PPARγ, RARα, RARγ, RXRα, RXRβ, TRα, TRβ and VDR transcriptional activity in agonist mode and ERRα, RORα and RORγ in inverse-agonist mode. Measurements are shown as percentage of positive control, n=2 replicates per condition and n=3 replicates per condition for the controls. b) Effects of sterols (T-MAS 5 μM, FF-MAS 10 μM) and small molecules (Ketoconazole 2.5 μM, TASIN-1 100 nM) on the NR2F1-mediated activation of a NGFI-A promoter driven luciferase reporter in comparison to cells containing the reporter only (Ctrl.) or untreated. n=2 replicates per condition, with triplicate measurements per replicate. c) Effects of 2,2-dimethylzymosterol (5 μM) on the NR2C2 mediated activation of a NGFI-A promoter driven luciferase reporter in comparison to cells infected with reporter only, untreated, or treated with a previously reported positive control (all-trans retinoic acid, ATRA, 5 μM). n=2 replicates per condition, with triplicate measurements per replicate. d) LSS, DHCR7, LDLR mRNA levels measured by RT-qPCR following 24 h treatment with DMSO, Mevastatin (2.5 μM), Ro 48-8071 (500 nM), Ketoconazole (2.5 μM), TASIN-1 (100 nM), or Amorolfine (100 nM). n=2 replicates, with triplicate qPCR measurements per replicate. Experiments in panels b-d are representative of two indpedendent experiments.

NR2C2 = test: NR2C2-mediated NGFI-A promoter luciferase reporter; format: cell-based; settings: 2,2-dimethylzymosterol 5 μM
Experimental: (§1) FIGS. 6(A-D) illustrate images and graphs showing the effect of 8,9-unsaturated sterols on nuclear hormone receptors and SREBP2 activity: a) Luciferase reporter assays were used to assess if 2,2-Dimethylzymosterol (5 μM), Ketoconazole (2.5 μM), and TASIN-1 (250 nM) modulate human ERα, GR, LXRβ, NFkB, NRF2, PGR, PPARδ, PPARγ, RARα, RARγ, RXRα, RXRβ, TRα, TRβ and VDR transcriptional activity in agonist mode and ERRα, RORα and RORγ in inverse-agonist mode. […]

EBP = target: T2, EBP (Mus musculus, UniProt P70245); test: EBP enzymatic assay (GC/MS); format: biochemical; settings: small molecules 10 μM, zymostenol 25 μM, 2 h
T2 construct: active EBP was obtained from mouse microsomes; from tissue
T2 sequence (P70245 1-230): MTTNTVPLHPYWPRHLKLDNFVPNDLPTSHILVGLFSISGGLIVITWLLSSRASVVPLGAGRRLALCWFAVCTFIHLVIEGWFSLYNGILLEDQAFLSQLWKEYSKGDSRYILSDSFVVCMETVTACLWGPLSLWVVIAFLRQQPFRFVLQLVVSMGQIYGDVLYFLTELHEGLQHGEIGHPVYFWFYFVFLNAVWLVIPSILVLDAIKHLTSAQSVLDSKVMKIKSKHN

LPC-lesioned spinal cord [7] = test: LPC focal demyelination of spinal cord, remyelination histology; format: in vivo, mouse; settings: ifenprodil 10 mg per kg or tamoxifen 2 mg per kg, daily i.p., 8 days from day 4 after lesion
NR2F1 = test: NR2F1-mediated NGFI-A promoter luciferase reporter; format: cell-based; settings: Ketoconazole 2.5 μM, TASIN-1 100 nM
Experimental: as §1

Compound: CCC(C)(C)c1ccc(CC(C)CN2C[C@@H](C)O[C@@H](C)C2)cc1 (stereo partly shown) [amorolfine, Amorolfine]
- formation of MBP+ oligodendrocytes from OPCs [1]: enhanced formation of MBP^+ oligodendrocytes
- MBP+ oligodendrocyte tracking along and wrapping of microfibers [2]: significantly enhanced MBP+ oligodendrocyte tracking along and wrapping of the microfibers

Compound: 4-hydroxytamoxifen
- potency as estrogen receptor modulator relative to tamoxifen (estrogen receptor): 100 fold
- formation of MBP+ oligodendrocytes from OPCs [1]: enhance the formation of oligodendrocytes with comparable potency
- accumulation of sterol intermediates in OPCs (enzyme inhibition in OPCs, e.g. EBP) [3]: inhibit EBP in OPCs

Compound: Clc1ccc(COC(Cn2ccnc2)c2ccc(Cl)cc2Cl)c(Cl)c1 (stereo not shown) [miconazole, Miconazole]
- remyelination in mouse models of demyelination (earlier work) (LPC-lesioned spinal cord [4]): enhances remyelination in mouse models of demyelination
- IC50 (rat CYP51): 300 to 700 nM
- 8,9-unsaturated sterol accumulation in human cortical spheroids [5]: led to 8,9-unsaturated sterol accumulation

Compound: CC(C)=CCC[C@@H](C)[C@H]1CC[C@H]2C3=C(CC[C@]12C)[C@@]1(C)CC(C)(C)[C@H](O)C[C@@H]1CC3 [2,2-dimethylzymosterol]
- agonist activity in NHR reporter assays [6]: no molecule showed significant agonist activity in any assay
- formation of MBP+ oligodendrocytes from OPCs [1]: maximally potent enhancers of oligodendrocyte formation among the 8,9-unsaturated sterols tested
- EC50 ([1]; OPC-5 and OPC-1, 72 h, read-out: EC50 for enhancing oligodendrocyte formation): 1000 to 2000 nM
- formation of MBP+ oligodendrocytes in combination with ketoconazole [1]: no further benefit over ketoconazole alone
- NR2C2-mediated reporter activation (NR2C2): ineffective

Compound: CC/C(=C(\c1ccccc1)c1ccc(OCCN(C)C)cc1)c1ccccc1 [tamoxifen, Tamoxifen]
- formation of MBP+ oligodendrocytes from OPCs [1]: enhance the formation of oligodendrocytes with comparable potency
- formation of MBP+ oligodendrocytes in combination with ketoconazole [1]: did not enhance differentiation above levels seen for ketoconazole alone
- inhibition of EBP enzymatic activity (EBP): clear inhibition
- accumulation of sterol intermediates in OPCs (enzyme inhibition in OPCs, e.g. EBP) [3]: induced accumulation of zymostenol and zymosterol and decreased basal sterol levels; also recorded: inhibit EBP in OPCs
- remyelination of LPC lesion (LPC-lesioned spinal cord [7]): remyelination was widespread throughout the lesion

Compound: COc1ccc(S(=O)(=O)N2CCC(N3CCC(C)CC3)CC2)cc1 [TASIN-1]
- agonist activity in NHR reporter assays [6]: no molecule showed significant agonist activity in any assay
- formation of MBP+ oligodendrocytes from OPCs [1]: enhanced formation of MBP^+ oligodendrocytes
- NR2F1-mediated reporter activation (NR2F1): ineffective
- inhibition of EBP enzymatic activity (EBP): clear inhibition
- MBP+ oligodendrocyte tracking along and wrapping of microfibers [2]: significantly enhanced MBP+ oligodendrocyte tracking along and wrapping of the microfibers

Compound: CC(=O)N1CCN(c2ccc(OCC3COC(Cn4ccnc4)(c4ccc(Cl)cc4Cl)O3)cc2)CC1 (stereo not shown) [ketoconazole, Ketoconazole]
- agonist activity in NHR reporter assays [6]: no molecule showed significant agonist activity in any assay
- formation of MBP+ oligodendrocytes from OPCs [1]: enhanced formation of MBP^+ oligodendrocytes
- NR2F1-mediated reporter activation (NR2F1): ineffective
- MBP+ oligodendrocyte tracking along and wrapping of microfibers [2]: significantly enhanced MBP+ oligodendrocyte tracking along and wrapping of the microfibers
- IC50 (rat CYP51): 300 to 700 nM

Reference: US12102644B2, “Compounds and methods of promoting myelination” (Case Western Reserve University, priority 2019, dated 2024)
